Measurements as given in the supplement of paper PMC10307832.

Assays:
Assay in all cases: relative viability (nuclei count vs DMSO), 5 days (fraction); higher = more cells survive
[1] = compound: CCC1=CN=CN=C1N2CCN(CC2)CC3=NC4=C(N3)C=C(C=C4)C(F)(F)F + Cc1cc(Nc2cc(N3CCN(C)CC3)nc(Sc3ccc(NC(=O)C4CC4)cc3)n2)n[nH]1 [Tozasertib] (partner 0.1 µM)
In short: (§1)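 Lung cancer cell lines, seeded in 1536-well plates, were treated the following day by pin tool with a single drug or with five library-drug doses (not always all listed) in √10 steps on top of a fixed anchor-drug dose. Cells were fixed and nuclei stained in one step after 5 days, and nuclei were counted. Relative viability is the nuclei count for treated wells divided by that for vehicle wells, reported as medians of duplicate plates.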

Mirin + Bortezomib = compound: N=C1NC(=O)/C(=C/c2ccc(O)cc2)S1 [Mirin] + CC(C)C[C@H](NC(=O)[C@H](Cc1ccccc1)NC(=O)c1cnccn1)B(O)O [Bortezomib] (partner 0.002 µM)
In short: as §1

Mirin + Pictilisib = compound: N=C1NC(=O)/C(=C/c2ccc(O)cc2)S1 [Mirin] + CS(=O)(=O)N1CCN(Cc2cc3nc(-c4cccc5[nH]ncc45)nc(N4CCOCC4)c3s2)CC1 [Pictilisib] (partner 1 µM)
In short: as §1

Mirin + Olaparib = compound: N=C1NC(=O)/C(=C/c2ccc(O)cc2)S1 [Mirin] + O=C(c1cc(Cc2n[nH]c(=O)c3ccccc23)ccc1F)N1CCN(C(=O)C2CC2)CC1 [Olaparib] (partner 8 µM)
In short: as §1

NCI-H1437 showed a relative viability ([1]; first compound 0.04 µM) of 0.419, a relative viability ([1]; first compound 0.1265 µM) of 0.364 and a relative viability ([1]; first compound 0.4 µM) of 0.366. It also gave a relative viability ([1]; first compound 1.265 µM) of 0.367, a relative viability ([1]; first compound 4 µM) of 0.294 and a relative viability (Mirin + Bortezomib; first compound 0.25 µM) of 0.498. It also gave a relative viability (Mirin + Bortezomib; first compound 0.7906 µM) of 0.436, a relative viability (Mirin + Bortezomib; first compound 2.5 µM) of 0.438 and a relative viability (Mirin + Bortezomib; first compound 7.906 µM) of 0.41. The relative viability (Mirin + Bortezomib; first compound 25 µM) was 0.472, the relative viability (Mirin + Pictilisib; first compound 0.25 µM) was 0.525 and the relative viability (Mirin + Pictilisib; first compound 0.7906 µM) was 0.436. It also gave a relative viability (Mirin + Pictilisib; first compound 2.5 µM) of 0.487, a relative viability (Mirin + Pictilisib; first compound 7.906 µM) of 0.272 and a relative viability (Mirin + Pictilisib; first compound 25 µM) of 0.165. For the same cell line, the relative viability (Mirin + Olaparib; first compound 0.25 µM) was 0.637, the relative viability (Mirin + Olaparib; first compound 0.7906 µM) was 0.641 and the relative viability (Mirin + Olaparib; first compound 2.5 µM) was 0.607. For the same cell line, the relative viability (Mirin + Olaparib; first compound 7.906 µM) was 0.625 and the relative viability (Mirin + Olaparib; first compound 25 µM) was 0.549.
Work on PC-14 yielded a relative viability ([1]; first compound 0.04 µM) of 0.599, a relative viability ([1]; first compound 0.1265 µM) of 0.546 and a relative viability ([1]; first compound 0.4 µM) of 0.55. The relative viability ([1]; first compound 1.265 µM) was 0.502, the relative viability ([1]; first compound 4 µM) was 0.582 and the relative viability (Mirin + Bortezomib; first compound 0.25 µM) was 0.895. For the same cell line, the relative viability (Mirin + Bortezomib; first compound 0.7906 µM) was 0.852, the relative viability (Mirin + Bortezomib; first compound 2.5 µM) was 0.894 and the relative viability (Mirin + Bortezomib; first compound 7.906 µM) was 1.06. The relative viability (Mirin + Bortezomib; first compound 25 µM) was 1.04, the relative viability (Mirin + Pictilisib; first compound 0.25 µM) was 0.658 and the relative viability (Mirin + Pictilisib; first compound 0.7906 µM) was 0.568. It also gave a relative viability (Mirin + Pictilisib; first compound 2.5 µM) of 0.68, a relative viability (Mirin + Pictilisib; first compound 7.906 µM) of 0.797 and a relative viability (Mirin + Pictilisib; first compound 25 µM) of 0.933. For the same cell line, the relative viability (Mirin + Olaparib; first compound 0.25 µM) was 0.25, the relative viability (Mirin + Olaparib; first compound 0.7906 µM) was 0.34 and the relative viability (Mirin + Olaparib; first compound 2.5 µM) was 0.313. The relative viability (Mirin + Olaparib; first compound 7.906 µM) was 0.308 and the relative viability (Mirin + Olaparib; first compound 25 µM) was 0.271.
For NCI-H1666, the relative viability ([1]; first compound 0.04 µM) was 0.556, the relative viability ([1]; first compound 0.1265 µM) was 0.723 and the relative viability ([1]; first compound 0.4 µM) was 0.575. For the same cell line, the relative viability ([1]; first compound 1.265 µM) was 0.569, the relative viability ([1]; first compound 4 µM) was 0.635 and the relative viability (Mirin + Bortezomib; first compound 0.25 µM) was 0.883. For the same cell line, the relative viability (Mirin + Bortezomib; first compound 0.7906 µM) was 0.873, the relative viability (Mirin + Bortezomib; first compound 2.5 µM) was 0.976 and the relative viability (Mirin + Bortezomib; first compound 7.906 µM) was 0.513. The relative viability (Mirin + Bortezomib; first compound 25 µM) was 0.479, the relative viability (Mirin + Pictilisib; first compound 0.25 µM) was 0.445 and the relative viability (Mirin + Pictilisib; first compound 0.7906 µM) was 0.64. For the same cell line, the relative viability (Mirin + Pictilisib; first compound 2.5 µM) was 0.365, the relative viability (Mirin + Pictilisib; first compound 7.906 µM) was 0.36 and the relative viability (Mirin + Pictilisib; first compound 25 µM) was 0.324. For the same cell line, the relative viability (Mirin + Olaparib; first compound 0.25 µM) was 0.763, the relative viability (Mirin + Olaparib; first compound 0.7906 µM) was 0.797 and the relative viability (Mirin + Olaparib; first compound 2.5 µM) was 0.737. The relative viability (Mirin + Olaparib; first compound 7.906 µM) was 0.71 and the relative viability (Mirin + Olaparib; first compound 25 µM) was 0.728.
For NCI-H2023, the relative viability ([1]; first compound 0.04 µM) was 0.33, the relative viability ([1]; first compound 0.1265 µM) was 0.383 and the relative viability ([1]; first compound 0.4 µM) was 0.343. The relative viability ([1]; first compound 1.265 µM) was 0.297, the relative viability ([1]; first compound 4 µM) was 0.325 and the relative viability (Mirin + Bortezomib; first compound 0.25 µM) was 1.13. It also gave a relative viability (Mirin + Bortezomib; first compound 0.7906 µM) of 0.807, a relative viability (Mirin + Bortezomib; first compound 2.5 µM) of 1 and a relative viability (Mirin + Bortezomib; first compound 7.906 µM) of 1.05. It also gave a relative viability (Mirin + Bortezomib; first compound 25 µM) of 0.926, a relative viability (Mirin + Pictilisib; first compound 0.25 µM) of 0.252 and a relative viability (Mirin + Pictilisib; first compound 0.7906 µM) of 0.258. For the same cell line, the relative viability (Mirin + Pictilisib; first compound 2.5 µM) was 0.19, the relative viability (Mirin + Pictilisib; first compound 7.906 µM) was 0.29 and the relative viability (Mirin + Pictilisib; first compound 25 µM) was 0.214. The relative viability (Mirin + Olaparib; first compound 0.25 µM) was 0.496, the relative viability (Mirin + Olaparib; first compound 0.7906 µM) was 0.506 and the relative viability (Mirin + Olaparib; first compound 2.5 µM) was 0.454. It also gave a relative viability (Mirin + Olaparib; first compound 7.906 µM) of 0.459 and a relative viability (Mirin + Olaparib; first compound 25 µM) of 0.416.
Cell Line NCI-H1755 has a relative viability ([1]; first compound 0.04 µM) of 0.627, a relative viability ([1]; first compound 0.1265 µM) of 0.503 and a relative viability ([1]; first compound 0.4 µM) of 0.596. It also gave a relative viability ([1]; first compound 1.265 µM) of 0.515, a relative viability ([1]; first compound 4 µM) of 0.521 and a relative viability (Mirin + Bortezomib; first compound 0.25 µM) of 0.951. It also gave a relative viability (Mirin + Bortezomib; first compound 0.7906 µM) of 1.03, a relative viability (Mirin + Bortezomib; first compound 2.5 µM) of 0.979 and a relative viability (Mirin + Bortezomib; first compound 7.906 µM) of 0.873. The relative viability (Mirin + Bortezomib; first compound 25 µM) was 1.11, the relative viability (Mirin + Pictilisib; first compound 0.25 µM) was 0.475 and the relative viability (Mirin + Pictilisib; first compound 0.7906 µM) was 0.336. The relative viability (Mirin + Pictilisib; first compound 2.5 µM) was 0.479, the relative viability (Mirin + Pictilisib; first compound 7.906 µM) was 0.395 and the relative viability (Mirin + Pictilisib; first compound 25 µM) was 0.356. It also gave a relative viability (Mirin + Olaparib; first compound 0.25 µM) of 0.851, a relative viability (Mirin + Olaparib; first compound 0.7906 µM) of 0.914 and a relative viability (Mirin + Olaparib; first compound 2.5 µM) of 0.866. It also gave a relative viability (Mirin + Olaparib; first compound 7.906 µM) of 0.833 and a relative viability (Mirin + Olaparib; first compound 25 µM) of 0.93.
NCI-H2347 showed a relative viability ([1]; first compound 0.04 µM) of 0.405, a relative viability ([1]; first compound 0.1265 µM) of 0.454 and a relative viability ([1]; first compound 0.4 µM) of 0.579. For the same cell line, the relative viability ([1]; first compound 1.265 µM) was 0.389, the relative viability ([1]; first compound 4 µM) was 0.513 and the relative viability (Mirin + Bortezomib; first compound 0.25 µM) was 0.824. For the same cell line, the relative viability (Mirin + Bortezomib; first compound 0.7906 µM) was 1.02, the relative viability (Mirin + Bortezomib; first compound 2.5 µM) was 1.32 and the relative viability (Mirin + Bortezomib; first compound 7.906 µM) was 0.639. For the same cell line, the relative viability (Mirin + Bortezomib; first compound 25 µM) was 1.01, the relative viability (Mirin + Pictilisib; first compound 0.25 µM) was 0.564 and the relative viability (Mirin + Pictilisib; first compound 0.7906 µM) was 0.622. For the same cell line, the relative viability (Mirin + Pictilisib; first compound 2.5 µM) was 1.71, the relative viability (Mirin + Pictilisib; first compound 7.906 µM) was 0.749 and the relative viability (Mirin + Pictilisib; first compound 25 µM) was 0.595. The relative viability (Mirin + Olaparib; first compound 0.25 µM) was 0.639, the relative viability (Mirin + Olaparib; first compound 0.7906 µM) was 0.639 and the relative viability (Mirin + Olaparib; first compound 2.5 µM) was 0.602. For the same cell line, the relative viability (Mirin + Olaparib; first compound 7.906 µM) was 0.612 and the relative viability (Mirin + Olaparib; first compound 25 µM) was 0.588.
ABC-1 showed a relative viability ([1]; first compound 0.04 µM) of 0.176, a relative viability ([1]; first compound 0.1265 µM) of 0.172 and a relative viability ([1]; first compound 0.4 µM) of 0.172. The relative viability ([1]; first compound 1.265 µM) was 0.152, the relative viability ([1]; first compound 4 µM) was 0.196 and the relative viability (Mirin + Bortezomib; first compound 0.25 µM) was 0.293. The relative viability (Mirin + Bortezomib; first compound 0.7906 µM) was 0.254, the relative viability (Mirin + Bortezomib; first compound 2.5 µM) was 0.306 and the relative viability (Mirin + Bortezomib; first compound 7.906 µM) was 0.339. It also gave a relative viability (Mirin + Bortezomib; first compound 25 µM) of 0.293, a relative viability (Mirin + Pictilisib; first compound 0.25 µM) of 0.923 and a relative viability (Mirin + Pictilisib; first compound 0.7906 µM) of 0.501. The relative viability (Mirin + Pictilisib; first compound 2.5 µM) was 0.753, the relative viability (Mirin + Pictilisib; first compound 7.906 µM) was 0.695 and the relative viability (Mirin + Pictilisib; first compound 25 µM) was 0.302. It also gave a relative viability (Mirin + Olaparib; first compound 0.25 µM) of 0.887, a relative viability (Mirin + Olaparib; first compound 0.7906 µM) of 0.618 and a relative viability (Mirin + Olaparib; first compound 2.5 µM) of 0.78. For the same cell line, the relative viability (Mirin + Olaparib; first compound 7.906 µM) was 0.593 and the relative viability (Mirin + Olaparib; first compound 25 µM) was 0.41.
201T was tested, and the relative viability ([1]; first compound 0.04 µM) was 0.923, the relative viability ([1]; first compound 0.1265 µM) was 0.936 and the relative viability ([1]; first compound 0.4 µM) was 0.9. For the same cell line, the relative viability ([1]; first compound 1.265 µM) was 0.846, the relative viability ([1]; first compound 4 µM) was 0.919 and the relative viability (Mirin + Bortezomib; first compound 0.25 µM) was 1.12. The relative viability (Mirin + Bortezomib; first compound 0.7906 µM) was 1.12, the relative viability (Mirin + Bortezomib; first compound 2.5 µM) was 1.2 and the relative viability (Mirin + Bortezomib; first compound 7.906 µM) was 1.18. For the same cell line, the relative viability (Mirin + Bortezomib; first compound 25 µM) was 1.23, the relative viability (Mirin + Pictilisib; first compound 0.25 µM) was 0.704 and the relative viability (Mirin + Pictilisib; first compound 0.7906 µM) was 0.668. The relative viability (Mirin + Pictilisib; first compound 2.5 µM) was 0.614, the relative viability (Mirin + Pictilisib; first compound 7.906 µM) was 0.753 and the relative viability (Mirin + Pictilisib; first compound 25 µM) was 0.67. It also gave a relative viability (Mirin + Olaparib; first compound 0.25 µM) of 0.877, a relative viability (Mirin + Olaparib; first compound 0.7906 µM) of 0.888 and a relative viability (Mirin + Olaparib; first compound 2.5 µM) of 0.886. It also gave a relative viability (Mirin + Olaparib; first compound 7.906 µM) of 0.902 and a relative viability (Mirin + Olaparib; first compound 25 µM) of 1.03.
